Molecular target: T1, FSHR (Homo sapiens, UniProt P23945)
T1 construct: expressed in transfected cells; host or cells: CHO cells, clone Cho-FSHR-LUC-1-1-43
T1 sequence (P23945 18-695): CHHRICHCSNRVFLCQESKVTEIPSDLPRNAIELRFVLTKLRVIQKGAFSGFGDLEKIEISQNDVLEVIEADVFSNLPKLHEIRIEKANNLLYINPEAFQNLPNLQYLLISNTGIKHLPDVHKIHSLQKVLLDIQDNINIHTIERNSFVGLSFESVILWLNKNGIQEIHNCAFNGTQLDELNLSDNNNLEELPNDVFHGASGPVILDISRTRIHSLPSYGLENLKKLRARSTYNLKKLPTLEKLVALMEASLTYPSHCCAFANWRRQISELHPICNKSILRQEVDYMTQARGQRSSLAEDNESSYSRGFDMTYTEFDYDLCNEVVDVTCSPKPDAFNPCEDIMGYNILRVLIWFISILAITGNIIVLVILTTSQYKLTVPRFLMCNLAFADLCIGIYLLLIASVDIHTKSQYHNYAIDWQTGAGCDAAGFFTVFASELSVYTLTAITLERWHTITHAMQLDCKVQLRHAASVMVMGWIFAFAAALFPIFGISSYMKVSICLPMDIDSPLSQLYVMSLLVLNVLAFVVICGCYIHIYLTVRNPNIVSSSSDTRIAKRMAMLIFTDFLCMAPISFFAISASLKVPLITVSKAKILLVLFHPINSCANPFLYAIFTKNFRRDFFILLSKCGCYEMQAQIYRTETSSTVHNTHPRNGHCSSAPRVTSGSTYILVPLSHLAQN
Assay: EC50 of cyclic AMP production in CHO FSHR cells + EC20 FSH (Assay A)
Type: cell-based
Details: CHO-FSHR-LUC cells, in presence of EC20 FSH, cAMP HTRF, 1 h 37° C.
Description: EC50 of cyclic AMP production in CHO FSHR cells+EC20 FSH (Assay A)
2500 Cho-FSHR-LUC-1-1-43 cells were plated per well in 5 μl of phenol red free DMEM/F12+1% FBS. […] Cells were assayed by adding 100 μl of 2×EC20 FSH/IBMX in DMEM/F12+0.1% BSA) by Multidrop to 2 μl of test compound stamped in 384 well plates (compounds are diluted 1:50). […] The compound plate map was as follows: Column 1: 2 μl of DMSO; Column 2: 2 μl of DMSO; Columns 3-12 and 13-24: 2 μl of test compound, diluted 1:4 in 100% DMSO, or 2 μl of FSH, diluted 1:4 in DMEM/F12+0.1% BSA. The starting concentration for FSH was 50 nM (final concentration was 0.5 nM). […] 10 μl of mixed HTRF (CisBio #62AM4PEC) reagents were added per well and incubated at room temperature for 1 h. The plates were read on Envision using the cAMP HTRF—low volume 384 well protocol. […] Values given in percent (%) indicate the percental effect (response) at a certain concentration of agonist relative to the maximum response of the FSH standard.

Row | EC50 | SMILES
1 | > 5 µM | COc1cc2c(cc1OC(C)C)-n1c(C3CCOCC3)nc(C(=O)N3CCOCC3(C)C)c1CC2 [Compound 84, (3,3-Dimethyl-morpholin-4-yl)-[8-isopropoxy-7-methoxy-1-(tetrahydro-pyran-4-yl)-4,5-dihydro-imidazo[1,5-a]quinolin-3-yl]-methanone]
2 | 0.1 to 1 µM | COc1cc2c(cc1OC(C)C)-n1c(C3=CCOCC3)nc(C(=O)N3CCOCC3(C)C)c1CC2 [Compound 79]
3 | > 5 µM | COc1cc2c(cc1OC(C)C)-n1c(-c3cnn(C4CCC4)c3)nc(C(=O)N3CCOCC3(C)C)c1CC2 [Compound 80]
4 | 1 to 5 µM | COc1cc2c(cc1OC(C)C)-n1c(-c3cc(Cl)c(F)cc3F)nc(C(=O)N3CCOCC3(C)C)c1CC2 [Compound 113]
5 | 0.1 to 1 µM | CCn1nccc1-c1nc(C(=O)N2CCOCC2(C)C)c2n1-c1cc(OC(C)C)c(OC)cc1CC2 [Compound 92]
6 | > 5 µM | COc1cc2c(cc1OC(C)C)-n1c(-c3ccc(F)c(C#N)c3)nc(C(=O)N3CCOCC3(C)C)c1CC2 [Compound 107]
7 | 1 to 5 µM | CCCn1nc(C)cc1-c1nc(C(=O)N2CCOCC2(C)C)c2n1-c1cc(OC(C)C)c(OC)cc1CC2 [Compound 91]
8 | 0.1 to 1 µM | COc1cc2c(cc1OC(C)C)-n1c(-c3cc(Cl)ccc3F)nc(C(=O)N3CCOCC3(C)C)c1CC2 [Compound 101]
9 | 0.1 to 1 µM | COc1cc2c(cc1OC(C)C)-n1c(-c3cc(C)sc3C)nc(C(=O)N3CCOCC3(C)C)c1CC2 [Compound 129]
10 | 1 to 5 µM | COc1cc2c(cc1OC(C)C)-n1c(-c3cccc4cn[nH]c34)nc(C(=O)N3CCOCC3(C)C)c1CC2 [Compound 89]
11 | 0.1 to 1 µM | COc1cc2c(cc1OC(C)C)-n1c(-c3cc(F)ccc3F)nc(C(=O)N3CCOCC3(C)C)c1CC2 [Compound 127]
12 | 1 to 5 µM | COc1cc2c(cc1OC(C)C)-n1c(-c3ccnn3CC(C)C)nc(C(=O)N3CCOCC3(C)C)c1CC2 [Compound 87]
13 | 0.1 to 1 µM | COc1cc2c(cc1OC(C)C)-n1c(-c3cccc4c3OCO4)nc(C(=O)N3CCOCC3(C)C)c1CC2 [Compound 141]
14 | 0.1 to 1 µM | CCCn1nccc1-c1nc(C(=O)N2CCOCC2(C)C)c2n1-c1cc(OC(C)C)c(OC)cc1CC2 [Compound 88]
15 | > 5 µM | COc1ccc(-c2nc(C(=O)N3CCOCC3(C)C)c3n2-c2cc(OC(C)C)c(OC)cc2CC3)cc1Cl [Compound 103]
16 | 1 to 5 µM | [2H]C([2H])([2H])NC(=O)c1cc2c(cc1OC)CCc1c(C(=O)N(C)C(C)(C)C)nc(-c3cccs3)n1-2 [Compound 90, 7-Methoxy-1-thiophen-2-yl-4,5-dihydro-imidazo[1,5-a]quinoline-3,8-dicarboxylic acid 3-(tert-butyl-methyl-amide) 8-methyl-d3-amide]
17 | 1 to 5 µM | COc1cc2c(cc1OC(C)C)-n1c(-c3cccc(OC)c3F)nc(C(=O)N3CCOCC3(C)C)c1CC2 [Compound 112]
18 | 0.1 to 1 µM | COc1cc2c(cc1CC(C)C)-n1c(-c3cc(C)cs3)nc(C(=O)N(C)C(C)(C)C)c1CC2 [Compound 95, 8-Isobutyl-7-methoxy-1-(4-methyl-thiophen-2-yl)-4,5-dihydro-imidazo[1,5-a]quinoline-3-carboxylic acid tert-butyl-methyl-amide]
19 | 1 to 5 µM | COc1cc2c(cc1OC(C)C)-n1c(-c3cc(F)ccc3OC)nc(C(=O)N3CCOCC3(C)C)c1CC2 [Compound 104]
20 | 0.1 to 1 µM | COc1cc2c(cc1OC(C)C)-n1c(-c3ccc(F)c(Cl)c3)nc(C(=O)N3CCOCC3(C)C)c1CC2 [Compound 116]
21 | 1 to 5 µM | COc1cc2c(cc1CC(C)C)-n1c(C3CCOC3)nc(C(=O)N(C)C(C)(C)C)c1CC2 (stereo not drawn) [Compound 94, N-(tert-butyl)-8-isobutyl-7-methoxy-N-methyl-1-(tetrahydrofuran-3-yl)-4,5-dihydroimidazo[1,5-a]quinoline-3-carboxamide]

Second part, the compound before the results:

Row | SMILES | EC50
22 | COc1cc2c(cc1-c1cccnc1)-n1c(-c3ccsc3)nc(C(=O)N(C)C(C)(C)C)c1CC2 [Compound 8, 7-Methoxy-8-pyridin-3-yl-1-thiophen-3-yl-4,5-dihydro-imidazo[1,5-a]quinoline-3-carboxylic acid tert-butyl-methyl-amide] | < 0.1 µM
23 | COc1cc2c(cc1OC(C)C)-n1c(-c3cn(C)cn3)nc(C(=O)N3CCOCC3(C)C)c1CC2 [Compound 46] | > 5 µM
24 | COc1cc2c(cc1CC(C)C)-n1c(-c3cccs3)nc(C(=O)N3CCCC34COC4)c1CC2 [Compound 57, (8-Isobutyl-7-methoxy-1-thiophen-2-yl-4,5-dihydro-imidazo[1,5-a]quinolin-3-yl)-(2-oxa-5-aza-spiro[3.4]oct-5-yl)-methanone] | 1 to 5 µM
25 | COc1cc2c(cc1OC(C)C)-n1c(-c3ccn(C)c3)nc(C(=O)N(C)C(C)(C)C)c1CC2 [Compound 15] | 0.1 to 1 µM
26 | COc1cc2c(cc1OC(C)C)-n1c(-c3sccc3C)nc(C(=O)N3CCOCC3(C)C)c1CC2 [Compound 60] | 0.1 to 1 µM
27 | COc1cc2c(cc1OC(C)C)-n1c(-c3ccc(C)cc3)nc(C(=O)N(C)C(C)(C)C)c1CC2 [Compound 63] | 0.1 to 1 µM
28 | COc1cc2c(cc1CC(C)C)-n1c(-c3cccs3)nc(C(=O)NC3(C)COC3)c1CC2 [Compound 55, 8-Isobutyl-7-methoxy-1-thiophen-2-yl-4,5-dihydro-imidazo[1,5-a]quinoline-3-carboxylic acid (3-methyl-oxetan-3-yl)-amide] | 0.1 to 1 µM
29 | COc1cc2c(cc1OC(C)C)-n1c(-c3ccsc3)nc(C(=O)N3CCCN(C(=O)N4CCC4)CC3)c1CC2 [Compound 10] | 0.1 to 1 µM
30 | COc1cc2c(cc1CC(C)C)-n1c(-c3ccsc3)nc(C(=O)N(C)C(C)(C)C)c1CC2 [Compound 18, 8-Isobutyl-7-methoxy-1-thiophen-3-yl-4,5-dihydro-imidazo[1,5-a]quinoline-3-carboxylic acid tert-butyl-methyl-amide] | 0.1 to 1 µM
31 | COc1cc2c(cc1OC(C)C)-n1c(-c3cccnc3)nc(C(=O)N3CCOCC3(C)C)c1CC2 [Compound 39] | 1 to 5 µM
32 | COc1cc2c(cc1OC)-n1c(-c3ccsc3)nc(C(=O)N(C)C(C)(C)C)c1CC2 [Compound 2, 7,8-Dimethoxy-1-thiophen-3-yl-4,5-dihydro-imidazo[1,5-a]quinoline-3-carboxylic acid tert-butyl-methyl-amide] | 0.1 to 1 µM
33 | COc1cc2c(cc1-c1ccn(C)n1)-n1c(-c3ccsc3)nc(C(=O)N(C)C(C)(C)C)c1CC2 [Compound 77, 7-Methoxy-8-(1-methyl-1H-pyrazol-3-yl)-1-thiophen-3-yl-4,5-dihydro-imidazo[1,5-a]quinoline-3-carboxylic acid tert-butyl-methyl-amide] | 0.1 to 1 µM
34 | COc1cc2c(cc1OC(C)C)-n1c(-c3ccnn3C)nc(C(=O)N3CCOCC3(C)C)c1CC2 [Compound 40] | 1 to 5 µM
35 | COc1cc2c(cc1CC(C)C)-n1c(-c3cc[nH]c3)nc(C(=O)N3CCOCC3(C)C)c1CC2 [Compound 28, (3,3-Dimethyl-morpholin-4-yl)-[8-isobutyl-7-methoxy-1-(1H-pyrrol-3-yl)-4,5-dihydro-imidazo[1,5-a]quinolin-3-yl]-methanone] | 0.1 to 1 µM
36 | COC(=O)c1nc(C(=O)N(C)C(C)(C)C)c2n1-c1cc(OC(C)C)c(OC)cc1CC2 [Compound 74, 3-(tert-Butyl-methyl-carbamoyl)-8-isopropoxy-7-methoxy-4,5-dihydro-imidazo[1,5-a]quinoline-1-carboxylic acid methyl ester] | 1 to 5 µM
37 | COc1cc2c(cc1CC(C)C)-n1c(-c3cccs3)nc(C(=O)N(C)C(C)(C)C)c1CC2 [Compound 17, 8-Isobutyl-7-methoxy-1-thiophen-2-yl-4,5-dihydro-imidazo[1,5-a]quinoline-3-carboxylic acid tert-butyl-methyl-amide] | < 0.1 µM
38 | COc1cc2c(cc1OC)-n1c(-c3cccs3)nc(C(=O)N(C)C(C)(C)C)c1CC2 [Compound 1, 7,8-Dimethoxy-1-thiophen-2-yl-4,5-dihydro-imidazo[1,5-a]quinoline-3-carboxylic acid tert-butyl-methyl-amide] | 0.1 to 1 µM
39 | COc1cc2c(cc1OC(C)C)-n1c(-c3ccncc3)nc(C(=O)N(C)C(C)(C)C)c1CC2 [Compound 13] | > 5 µM
